# Numbered stars: 1 amine (or outer) side, 2 acyl side, 3 side chain; on linkers, the order of the positions; unused ones are H or OH. Bridge positions count the residues as written; N and C are the ends. Square brackets hold non-standard residues; d marks the D form. Peptide text beside a SMILES is read from it. X3 = O=C(/C=N/OCCCCCCOc1cc(C[*:2])cc(C[*:3])c1)[*:1]; X1 = O=C(C=NOCCCCCCOc1cc(C[*:2])cc(C[*:3])c1)[*:1]; dMet(O) = CS(=O)CC[C@@H](N)C(=O)O; tBuAla = CC(C)(C)C[C@H](N)C(=O)O; Cba = N[C@@H](CC1CCC1)C(=O)O; hSer = N[C@@H](CCO)C(=O)O; Nle = CCCC[C@H](N)C(=O)O
# Target: T1, rh-integrin α4β7/LPAM-1 (Homo sapiens, UniProt P13612+P26010)
# T1 sequence (P13612 34-977 limits assumed): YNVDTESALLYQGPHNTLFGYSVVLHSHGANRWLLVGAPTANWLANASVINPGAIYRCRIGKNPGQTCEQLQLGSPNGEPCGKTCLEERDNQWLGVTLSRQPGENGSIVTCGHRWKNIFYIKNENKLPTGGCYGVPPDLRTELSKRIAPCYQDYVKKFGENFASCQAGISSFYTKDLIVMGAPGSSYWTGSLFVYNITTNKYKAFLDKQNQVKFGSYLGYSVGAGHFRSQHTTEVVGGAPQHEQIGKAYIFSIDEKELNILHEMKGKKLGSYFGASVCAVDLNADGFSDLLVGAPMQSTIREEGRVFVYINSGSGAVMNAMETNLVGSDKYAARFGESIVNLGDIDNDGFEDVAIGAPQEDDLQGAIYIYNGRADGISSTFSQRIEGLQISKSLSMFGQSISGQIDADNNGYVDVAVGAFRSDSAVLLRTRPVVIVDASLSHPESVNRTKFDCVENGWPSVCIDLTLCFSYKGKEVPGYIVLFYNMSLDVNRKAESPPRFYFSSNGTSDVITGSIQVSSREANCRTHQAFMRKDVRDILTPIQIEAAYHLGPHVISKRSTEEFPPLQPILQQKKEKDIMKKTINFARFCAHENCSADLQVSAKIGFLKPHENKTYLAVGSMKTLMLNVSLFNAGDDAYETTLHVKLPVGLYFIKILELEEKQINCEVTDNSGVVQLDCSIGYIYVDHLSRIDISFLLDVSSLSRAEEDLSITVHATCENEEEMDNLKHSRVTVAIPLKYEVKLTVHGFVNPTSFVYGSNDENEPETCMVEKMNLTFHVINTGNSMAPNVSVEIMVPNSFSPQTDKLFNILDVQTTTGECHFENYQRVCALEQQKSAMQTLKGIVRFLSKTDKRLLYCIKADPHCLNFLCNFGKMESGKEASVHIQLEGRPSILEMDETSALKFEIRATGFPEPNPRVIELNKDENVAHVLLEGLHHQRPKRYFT
# T1 sequence (P26010 20-723 limits assumed): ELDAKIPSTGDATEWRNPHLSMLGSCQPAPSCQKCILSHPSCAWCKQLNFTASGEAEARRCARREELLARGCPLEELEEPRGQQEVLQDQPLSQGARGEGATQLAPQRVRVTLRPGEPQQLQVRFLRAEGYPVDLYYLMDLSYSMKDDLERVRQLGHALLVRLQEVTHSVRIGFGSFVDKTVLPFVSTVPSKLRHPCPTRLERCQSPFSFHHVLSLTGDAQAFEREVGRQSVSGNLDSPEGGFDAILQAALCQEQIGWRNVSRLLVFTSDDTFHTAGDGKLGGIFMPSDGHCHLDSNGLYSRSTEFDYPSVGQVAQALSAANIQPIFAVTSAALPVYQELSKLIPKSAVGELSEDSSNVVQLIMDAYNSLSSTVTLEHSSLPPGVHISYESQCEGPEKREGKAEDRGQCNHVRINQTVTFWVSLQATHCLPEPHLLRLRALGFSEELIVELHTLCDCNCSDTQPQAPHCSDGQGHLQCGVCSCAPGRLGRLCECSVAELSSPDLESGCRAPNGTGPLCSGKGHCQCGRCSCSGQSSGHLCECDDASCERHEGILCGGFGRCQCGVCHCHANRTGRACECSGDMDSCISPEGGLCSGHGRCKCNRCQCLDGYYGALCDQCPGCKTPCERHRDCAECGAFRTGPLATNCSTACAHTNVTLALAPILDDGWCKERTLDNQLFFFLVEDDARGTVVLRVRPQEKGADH
# Experiment: α4β7-MadCAM Competition ELISA (Example 4)
# Format: binding
# Conditions: Table 3 Representative compounds; inhibition of MAdCAM binding to coated α4β7; read-out: IC50
# Protocol: After washing with wash buffer, 200 μL assay buffer was added to each well and incubated for one hour at 28° C. After another wash with wash buffer, 100 μL of a MAdCAM and peptide mixture in assay buffer was added to each well and incubated for one hour at 28° C., followed by washing with wash buffer.
row,SMILES,IC50
1,"CCCC[C@@H]1NC(=O)[C@@H]2CCCN2C(=O)[C@@H]2CSCc3cc(cc(c3)OCCCCCCO/N=C/C(=O)N[C@@H](CCCNC(=N)N)C(=O)N2)CSC[C@@H](C(N)=O)NC(=O)[C@H](CCC(=O)O)NC(=O)[C@H](Cc2ccc(O)cc2)NC(=O)[C@@H]2CCCN2C(=O)[C@H](CC(C)(C)C)NC(=O)[C@H](CC(=O)O)NC1=O [compound 39, TSL6-SRCP{Nle}D {tBuAla}PYEC] (RCP[Nle]D[tBuAla]PYEC-NH2; linker N-2-10 via X3)",1.13 µM
2,"NC(=O)[C@@H]1CSCc2cc3cc(c2)OCCCCCCO/N=C/C(=O)N[C@@H](CC(=O)O)C(=O)N[C@@H](CSC3)C(=O)N[C@@H](Cc2ccc(O)cc2)C(=O)N2CCC[C@H]2C(=O)N[C@@H](CC(=O)O)C(=O)N[C@@H](Cc2ccccc2)C(=O)N[C@@H](Cc2ccc(O)cc2)C(=O)N[C@@H](Cc2cnc[nH]2)C(=O)N1 [compound 96, TSL6- SDCYPDFYHC] (DCYPDFYHC-NH2; linker N-2-9 via X3)",124 µM
3,"CC(C)(C)C[C@@H]1NC(=O)[C@H](CC(=O)O)NC(=O)[C@H](CC2CCC2)NC(=O)[C@@H]2CCCN2C(=O)[C@@H]2CSCc3cc(cc(c3)OCCCCCCO/N=C/C(=O)N[C@@H](CCCNC(=N)N)C(=O)N2)CSC[C@@H](C(N)=O)NC(=O)[C@H](CCC(=O)O)NC(=O)[C@H](CCC(N)=O)NC(=O)[C@H](Cc2c[nH]c3ccccc23)NC1=O [compound 56, TSL6-SRCP{CbA}D {tBuAla}WQEC] (RCP[Cba]D[tBuAla]WQEC-NH2; linker N-2-10 via X3)",3.89 µM
4,"C[C@@H]1NC(=O)[C@H](CC(=O)O)NC(=O)[C@@H](CC[S+](C)[O-])NC(=O)[C@@H]2CCCN2C(=O)[C@@H]2CSCc3cc(cc(c3)OCCCCCCO/N=C/C(=O)N[C@@H](CCC(N)=O)C(=O)N2)CSC[C@@H](C(N)=O)NC(=O)[C@H]([C@@H](C)O)NC(=O)[C@@H]2CCCN2C1=O (stereo partly drawn) [compound 67, TSL6-SQCP{Ox-Met}DAPTC] (QCP[dMet(O)]DAPTC-NH2; linker N-2-9 via X3)",15.7 µM
5,"CC[C@H](C)[C@@H]1NC(=O)[C@H](CC(=O)O)NC(=O)[C@H](CCSC)NC(=O)[C@@H]2CCCN2C(=O)[C@@H]2CSCc3cc(cc(c3)OCCCCCCO/N=C/C(=O)N[C@@H](C)C(=O)N2)CSC[C@@H](C(N)=O)NC(=O)[C@H]([C@@H](C)O)NC(=O)[C@@H]2CCCN2C1=O [compound 37, TSL6- SACPMDIPTC] (ACPMDIPTC-NH2; linker N-2-9 via X3)",0.943 µM
6,"CC[C@H](C)[C@@H]1NC(=O)[C@H]([C@@H](C)O)NC(=O)[C@H](CC(=O)O)NC(=O)[C@H](CO)NC(=O)[C@H](CCCNC(=N)N)NC(=O)[C@@H]2CSCc3cc(cc(c3)OCCCCCCO/N=C/C(=O)N[C@@H](C)C(=O)N2)CSC[C@@H](C(N)=O)NC1=O [compound 90, TSL6- SACRSDTLC] (ACRSDTIC-NH2; linker N-2-8 via X3)",79.8 µM
7,"C[C@@H](O)[C@@H]1NC(=O)[C@H](CC(=O)O)NC(=O)[C@@H]2CCCN2C(=O)[C@H](Cc2c[nH]c3ccccc23)NC(=O)[C@@H]2CSCc3cc(cc(c3)OCCCCCCO/N=C/C(=O)N[C@@H](CC(=O)O)C(=O)N2)CSC[C@H](C(N)=O)NC(=O)[C@H](Cc2cnc[nH]2)NC(=O)[C@H](Cc2ccc(O)cc2)NC1=O [compound 95, TSL6- SDCWPDTYHC] (DCWPDTYH[dC]-NH2; linker N-2-9 via X3)",114 µM
8,CC[C@H](C)[C@@H]1NC(=O)[C@H](CC(=O)O)NC(=O)[C@H](CCOC)NC(=O)[C@@H]2CCCN2C(=O)[C@@H]2CSCc3cc(cc(c3)OCCCCCCO/N=C/C(=O)N[C@@H](CCCNC(=N)N)C(=O)N2)CSC[C@@H](C(N)=O)NC(=O)[C@H](CCC(=O)O)NC(=O)[C@H](CCC(N)=O)NC(=O)[C@H](Cc2c[nH]c3ccccc23)NC1=O [compound 14] (RCP[hSer](Me)DIWQEC-NH2; linker N-2-10 via X3),0.26 µM
9,"CSCC[C@@H]1NC(=O)[C@@H]2CCCN2C(=O)[C@@H]2CSCc3cc(cc(c3)OCCCCCCO/N=C/C(=O)N[C@@H](C)C(=O)N2)CSC[C@@H](C(N)=O)NC(=O)[C@H](CCC(=O)O)NC(=O)CNC(=O)[C@H](C)NC(=O)[C@H](C(C)C)NC(=O)[C@H](CC(=O)O)NC1=O [compound 61, TSL6- SACPMDVAGEC] (ACPMDVAGEC-NH2; linker N-2-10 via X3)",5.98 µM

# Same assay, conditions: competition ELISA, 4 μg/mL α4β7 coated, MAdCAM and peptide mixture, 28° C.; read-out: IC50
row,SMILES,IC50
1,C[C@@H](O)[C@@H]1NC(=O)[C@H](CC(=O)O)NC(=O)[C@@H]2CCCN2C(=O)[C@H](Cc2ccc(O)cc2)NC(=O)[C@@H]2CSCc3cc(cc(c3)OCCCCCCON=CC(=O)N[C@@H](CC(N)=O)C(=O)N2)CSC[C@@H](C(=O)O)NC(=O)[C@H](Cc2c[nH]cn2)NC(=O)[C@H](Cc2ccc(O)cc2)NC1=O [SEQ ID NO: 86] (NCYPDTYHC-OH; linker N-2-9 via X1),79.3 µM
2,CC(C)C[C@@H]1NC(=O)[C@H](Cc2ccccc2)NC(=O)[C@@H]2CSCc3cc(cc(c3)OCCCCCCON=CC(=O)N[C@@H]([C@@H](C)O)C(=O)N2)CSC[C@@H](C(=O)O)NC(=O)[C@H](CC(N)=O)NC(=O)[C@H](CCCCN)NC(=O)[C@H](C(C)C)NC(=O)[C@H](CC(=O)O)NC1=O [SEQ ID NO: 10] (TCFLDVKNC-OH; linker N-2-9 via X1),311 µM
3,CC(C)C[C@@H]1NC(=O)[C@@H]2CCCN2C(=O)[C@@H]2CSCc3cc(cc(c3)OCCCCCCON=CC(=O)N[C@@H](CCCCN)C(=O)N2)CSC[C@@H](C(=O)O)NC(=O)[C@H](CO)NC(=O)[C@@H]2CCCN2C(=O)[C@H](C(C)C)NC(=O)[C@H](C)NC1=O [SEQ ID NO: 56] (KCPLAVPSC-OH; linker N-2-9 via X1),55.9 µM
4,CSCC[C@@H]1NC(=O)[C@@H]2CCCN2C(=O)[C@@H]2CSCc3cc(cc(c3)OCCCCCCON=CC(=O)N[C@@H](C)C(=O)N2)CSC[C@@H](C(=O)O)NC(=O)[C@H](CCC(=O)O)NC(=O)CNC(=O)[C@H](C)NC(=O)[C@H](C(C)C)NC(=O)[C@H](CC(=O)O)NC1=O [SEQ ID NO: 101] (ACPMDVAGEC-OH; linker N-2-10 via X1),5.98 µM
5,CC(C)C[C@@H]1NC(=O)[C@@H]2CCCN2C(=O)[C@@H](NC(=O)[C@H](CCCCN)NC(=O)[C@@H](N)CO)CSSC[C@@H](C(=O)O)NC(=O)[C@H](CCC(=O)O)NC(=O)[C@H](Cc2ccc(O)cc2)NC(=O)[C@@H]2CCCN2C(=O)[C@H]([C@@H](C)O)NC(=O)[C@H](CC(=O)O)NC1=O [SEQ ID NO: 152] (H-SKCPLDTPYEC-OH; disulfide 3-11; N-terminus and C-terminus assumed),0.552 µM
6,CC[C@H](C)[C@@H]1NC(=O)[C@H](CC(=O)O)NC(=O)[C@H](CCSC)NC(=O)[C@@H]2CCCN2C(=O)[C@@H](NC(=O)[C@H](CCC(N)=O)NC(=O)[C@H](CO)NC(C)=O)CSSC[C@@H](C(=O)O)NC(=O)[C@H]([C@@H](C)O)NC(=O)[C@@H]2CCCN2C1=O [SEQ ID NO: 111] (Ac-SQCPMDIPTC-OH; disulfide 3-10),1.7 µM
